Results published in patent EP4321162A1 (priority 2022, dated 2024).

Columns and labels:
Calu-3 2B4 cells = conditions: uninfected Calu-3 2B4 cells, 1-50 µM tested, 48 h
SARS-CoV-2 = system: SARS-CoV-2; parameters: species or system K18-hACE2 mice; conditions: mouse, in vivo

Structure (SMILES)	cytotoxicity of the administered concentrations (cell viability, MTT) (Calu-3 2B4 cells)	protection levels (survival) (SARS-CoV-2) [%]
Cc1ccc(NC(=O)C2(c3ccc4c(c3)OC(F)(F)O4)CC2)nc1-c1cccc(C(=O)O)c1 [VX809, 3-[6-[[1-(2,2-difluoro-1,3-benzodioxol-5-yl)cyclopropanecarbonyl]amino]-3-methylpyridin-2-yl]benzoic acid]	non-toxic	20
CC(C)(C)c1cc(C(C)(C)C)c(NC(=O)c2c[nH]c3ccccc3c2=O)cc1O [VX770, N-(2,4-ditert-butyl-5-hydroxyphenyl)-4-oxo-1H-quinoline-3-carboxamide]	non-toxic	40
